Earlier results on one compound are cited in US11697638B2, “5-methoxy-N,N-dimethyltryptamine crystalline forms” (Small Pharma Ltd, priority 2021, dated 2023).

Like-named read-outs stand apart in the source and are kept apart here.

The conditions of this data set: self-report, uncontrolled setting.

As for `COc1ccc2[nH]cc(CCN(C)C)c2c1` [5-MeO-DMT, 5-methoxy-N,N-dimethyltryptamine], the “participants with psychiatric diagnoses indicating that their symptoms improved following 5-MeO-DMT use” value runs as follows: (anxiety) 69%; (depression) 77%; (post-traumatic stress disorder) 79%.
